Measurements reported in article PMC6153936, “Bisarylureas Based on 1H-Pyrazolo[3,4-d]pyrimidine Scaffold as Novel Pan-RAF Inhibitors with Potent Anti-Proliferative Activities: Structure-Based Design, Synthesis, Biological Evaluation and Molecular Modelling Studies” (Molecules : A Journal of Synthetic Chemistry and Natural …, 2017).

Tests used:
A549 = experiment: MTT anti-proliferative assay, A549; format: cell-based, human; conditions: for IC50: Homo sapiens, A549, MTT, 48 h
Procedure: (§1) All cell lines were purchased from Cell Bank of China Science Academy (Shanghai, China). All chemicals and solvents were purchased from Sigma-Aldrich (St. Louis, MO, USA) or Gibco (Gibco BRL, Grand Island, NY, USA). The PC-3 and A375 cell lines was maintained in Dulbecco's modified eagle (DEME) medium supplement with 10% fetal bovine serum (FBS) and 1% penicillin–streptomycin. The others were cultured in Roswell Park Memorial Institute (RPMI) 1640 medium supplement with 10% fetal bovine serum (FBS) and 1% penicillin–streptomycin. Approximately 5 × 10^3 cells, suspended in medium, were plated into each well of a 96-well plate and grown at 37 °C in a humidified atmosphere with 5% CO2 for 24 h. The following day, various concentrations of tested compounds were added to the culture medium and incubated for 48 h. Fresh MTT was added to each well at the terminal concentration of 5 mg/mL in phosphate buffered saline (PBS), and incubated with cells at 37 °C for 4 h. The formazan crystals in each well were dissolved in 150 μL DMSO, and the absorbency at 570 nm was measured with an enzyme-linked immunosorbent assay plate reader. All of the compounds were tested three times in each of the cell lines.

BRAF^V600E = molecular target: T1, BRAF^V600E (Homo sapiens, UniProt P15056, V600E); experiment: BRAF^V600E kinase inhibition, Z'-LYTE; format: biochemical; conditions: for inhibition at 1 µM: 1000 nM; for inhibition at 1 µM / inhibition at 0.1 µM: average of two independent experiments; for inhibition at 0.1 µM: 100 nM
T1 construct: purchased Life Technologies
T1 sequence (P15056 whole entry V600E): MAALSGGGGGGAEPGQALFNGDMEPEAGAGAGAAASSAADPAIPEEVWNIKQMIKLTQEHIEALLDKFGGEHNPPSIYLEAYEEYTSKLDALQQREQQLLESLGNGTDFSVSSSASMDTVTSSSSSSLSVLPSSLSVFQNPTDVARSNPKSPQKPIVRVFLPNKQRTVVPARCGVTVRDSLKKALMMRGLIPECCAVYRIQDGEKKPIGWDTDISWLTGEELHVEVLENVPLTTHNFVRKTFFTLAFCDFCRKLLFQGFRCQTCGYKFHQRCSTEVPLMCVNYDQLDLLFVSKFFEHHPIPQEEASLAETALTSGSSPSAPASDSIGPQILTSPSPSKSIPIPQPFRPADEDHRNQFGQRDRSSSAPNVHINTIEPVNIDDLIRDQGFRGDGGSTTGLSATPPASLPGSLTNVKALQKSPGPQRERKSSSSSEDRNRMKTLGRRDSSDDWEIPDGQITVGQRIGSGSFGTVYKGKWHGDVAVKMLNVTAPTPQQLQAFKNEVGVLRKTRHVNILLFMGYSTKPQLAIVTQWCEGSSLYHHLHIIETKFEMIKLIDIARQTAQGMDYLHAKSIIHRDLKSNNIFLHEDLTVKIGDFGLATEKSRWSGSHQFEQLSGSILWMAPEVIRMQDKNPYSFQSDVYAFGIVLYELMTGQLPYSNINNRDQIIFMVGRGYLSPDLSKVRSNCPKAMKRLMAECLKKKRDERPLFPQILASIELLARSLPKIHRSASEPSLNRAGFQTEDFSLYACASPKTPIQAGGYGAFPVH
Procedure: The experiments were performed according to the instructions of the manufacturer, and single point concentration testing with two independent data points (n = 2). […] The IC50 values were calculated from the inhibition curves from two separate experiments.

[1] = MTT cytotoxic assay, normal cell line MDCK; conditions: dog, MDCK cells (normal cell line)
Procedure: as §1

PC-3 = experiment: MTT anti-proliferative assay, PC-3; format: cell-based, human; conditions: for IC50: Homo sapiens, PC-3, MTT, 48 h; for fold improvement in activity compared to Sorafenib, PC-3: PC-3, IC50 ratio to Sorafenib
Procedure: as §1

HT-29 = experiment: MTT anti-proliferative assay, HT-29; format: cell-based; conditions: Homo sapiens, 48 h
Procedure: as §1

A375 = experiment: MTT anti-proliferative assay, A375; format: cell-based; conditions: Homo sapiens, A-375, 48 h
Procedure: as §1

Row | IC50 (A549) [µM] | inhibition at 1 µM (BRAF^V600E) [%] | IC50 (PC-3) [µM] | melting point [°C] | IC50 (HT-29) [µM] | IC50 (A375) [µM] | inhibition at 0.1 µM (BRAF^V600E) [%] | IC50 (BRAF^V600E; ten concentrations 1000 to 0.0508 nM, two independent experiments) [µM] | Compound | IC50 at 48 h [1] [µM] | fold improvement compared to Sorafenib, A549 (A549; A549, IC50 ratio to Sorafenib) [fold] | fold improvement in activity compared to Sorafenib, PC-3 (PC-3) [fold]
1 | 75.6 | 46 | > 80 | 227.4 to 230 | > 80 | > 80 | – | – | Cc1cccc(NC(=O)Nc2ccc(Oc3ncnc4[nH]ncc34)cc2)c1 [Compound 1b, 1-(4-((1H-Pyrazolo[3,4-d]pyrimidin-4-yl)oxy)phenyl)-3-(m-tolyl)urea] | > 80 | – | –
2 | 16.2 | 83 | 11.2 | 245 to 247.2 | 15.2 | 29.7 | 27 | – | O=C(Nc1ccc(Oc2ncnc3[nH]ncc23)cc1)Nc1ccc(Cl)c(Cl)c1 [Compound 1c, 1-(4-((1H-Pyrazolo[3,4-d]pyrimidin-4-yl)oxy)phenyl)-3-(3,4-dichlorophenyl)urea] | 35.5 | – | –
3 | > 80 | 51 | 18.4 | – | > 80 | 78.8 | – | – | O=C(Nc1ccc(Cl)cc1)Nc1ccc(Oc2ncnc3[nH]ncc23)cc1 [Compound 1d, 1-(4-((1H-Pyrazolo[3,4-d]pyrimidin-4-yl)oxy)phenyl)-3-(4-chlorophenyl)urea] | > 80 | – | –
4 | 70.1 | 54 | > 80 | 234.8 to 236 | > 80 | > 80 | – | – | O=C(Nc1ccc(Oc2ncnc3[nH]ncc23)cc1)Nc1cccc(Cl)c1 [Compound 1g, 1-(4-((1H-Pyrazolo[3,4-d]pyrimidin-4-yl)oxy)phenyl)-3-(3-chlorophenyl)urea] | > 80 | – | –
5 | 60.3 | 67 | 46 | 249.2 to 250.6 | 50.7 | 30.4 | 37 | – | O=C(Nc1ccc(Oc2ncnc3[nH]ncc23)cc1)Nc1cc(F)cc(C(F)(F)F)c1 [Compound 1j, 1-(4-((1H-Pyrazolo[3,4-d]pyrimidin-4-yl)oxy)phenyl)-3-(3-fluoro-5-(trifluoromethyl)phenyl)urea] | > 80 | – | –
6 | 19.9 | 69 | > 80 | 219.5 to 221.5 | 71.2 | 75.6 | 60 | 0.0513 | CCc1cccc(NC(=O)Nc2ccc(Oc3ncnc4[nH]ncc34)cc2)c1 [Compound 1l, 1-(4-((1H-Pyrazolo[3,4-d]pyrimidin-4-yl)oxy)phenyl)-3-(3-ethylphenyl)urea] | > 80 | – | –
7 | > 80 | 62 | 23.4 | 229.2 to 231.4 | 31.7 | 64 | 3 | – | O=C(Nc1ccc(Oc2ncnc3[nH]ncc23)cc1)Nc1cccc([N+](=O)[O-])c1 [Compound 1m, 1-(4-((1H-Pyrazolo[3,4-d]pyrimidin-4-yl)oxy)phenyl)-3-(3-nitrophenyl)urea] | > 80 | – | –
8 | 32.1 | 87 | 40.3 | – | 27.8 | 5.39 | 30 | – | O=C(Nc1ccc(Oc2ncnc3[nH]ncc23)cc1)Nc1cc(C(F)(F)F)ccc1F [Compound 1n, 1-(4-((1H-Pyrazolo[3,4-d]pyrimidin-4-yl)oxy)phenyl)-3-(2-fluoro-5-(trifluoromethyl)phenyl)urea] | 23.1 | – | –
9 | 30 | 69 | 5.34 | 227.3 to 228.4 | > 80 | > 80 | 29 | – | CSc1cccc(NC(=O)Nc2ccc(Oc3ncnc4[nH]ncc34)cc2)c1 [Compound 1o, 1-(4-((1H-Pyrazolo[3,4-d]pyrimidin-4-yl)oxy)phenyl)-3-(3-(methylthio)phenyl)urea] | > 80 | – | –
10 | 59.5 | 48 | 30.9 | 235.2 to 237.4 | 39.4 | 61.8 | – | – | N#Cc1cccc(NC(=O)Nc2ccc(Oc3ncnc4[nH]ncc34)cc2)c1 [Compound 1p, 1-(4-((1H-Pyrazolo[3,4-d]pyrimidin-4-yl)oxy)phenyl)-3-(3-cyanophenyl)urea] | > 80 | – | –
11 | > 80 | 32 | 22.5 | 217.3 to 220.1 | > 80 | > 80 | – | – | COC(=O)c1cccc(NC(=O)Nc2ccc(Oc3ncnc4[nH]ncc34)cc2)c1 [Compound 1q, Methyl-3-(3-(4-((1H-pyrazolo[3,4-d]pyrimidin-4-yl)oxy)phenyl)ureido)benzoate] | > 80 | – | –
12 | > 80 | 22 | > 80 | 359.7 to 360.2 | > 80 | > 80 | – | – | Cc1ccc([N+](=O)[O-])c(NC(=O)Nc2ccc(Oc3ncnc4[nH]ncc34)cc2)c1 [Compound 1r, 1-(4-((1H-Pyrazolo[3,4-d]pyrimidin-4-yl)oxy)phenyl)-3-(5-methyl-2-nitrophenyl)urea] | > 80 | – | –
13 | > 80 | 71 | 5.52 | 234.5 to 237 | > 80 | 65.4 | 10 | – | O=C(Nc1ccc(Oc2ncnc3[nH]ncc23)cc1)Nc1cccc(Br)c1 [Compound 1s, 1-(4-((1H-Pyrazolo[3,4-d]pyrimidin-4-yl)oxy)phenyl)-3-(3-bromophenyl)urea] | > 80 | – | –
14 | > 80 | 89 | > 80 | 249.9 to 250.6 | > 80 | 75.2 | 28 | – | Cc1ccc(NC(=O)Nc2ccc(Oc3ncnc4[nH]ncc34)cc2)cc1C [Compound 1t, 1-(4-((1H-Pyrazolo[3,4-d]pyrimidin-4-yl)oxy)phenyl)-3-(3,4-dimethylphenyl)urea] | > 80 | – | –

Row | Compound | IC50 (A549) [µM] | inhibition at 1 µM (BRAF^V600E) [%] | IC50 (PC-3) [µM] | melting point [°C] | IC50 (HT-29) [µM] | IC50 (A375) [µM] | inhibition at 0.1 µM (BRAF^V600E) [%] | IC50 (BRAF^V600E; ten concentrations 1000 to 0.0508 nM, two independent experiments) [µM] | IC50 at 48 h [1] [µM] | fold improvement compared to Sorafenib, A549 (A549; A549, IC50 ratio to Sorafenib) [fold] | fold improvement in activity compared to Sorafenib, PC-3 (PC-3) [fold]
15 | Cc1ccc(Cl)c(NC(=O)Nc2ccc(Oc3ncnc4[nH]ncc34)cc2)c1 [Compound 1f, 1-(4-((1H-Pyrazolo[3,4-d]pyrimidin-4-yl)oxy)phenyl)-3-(2-chloro-5-methylphenyl)urea] | 5.24 | 37 | 1.12 | 230.2 to 232.4 | 61.7 | 62.3 | – | – | > 80 | 2 | 12
16 | O=C(Nc1ccc(Oc2ncnc3[nH]ncc23)cc1)Nc1cc(C(F)(F)F)ccc1Cl [Compound 1i, 1-(4-((1H-Pyrazolo[3,4-d]pyrimidin-4-yl)oxy)phenyl)-3-(2-chloro-5-(trifluoromethyl)phenyl)urea] | 60.8 | 83 | 1.12 | 239.2 to 240.3 | 62.4 | 26.9 | 52 | – | > 80 | – | 12
17 | CNC(=O)c1cc(Oc2ccc(NC(=O)Nc3ccc(Cl)c(C(F)(F)F)c3)cc2)ccn1 [Sorafenib, reference compound] | 13.7 | – | 13.8 | – | 8.12 | 6.81 | – | – | 14.7 | – | –
